Measurements taken from PMC12210912, “Pharmacologic properties and inhibitory activity of 6-azasteroids against Mycobacterium leprae in vivo and in vitro” (Microbiology Spectrum, 2025).
pIC50: −log10 of the molar value.

Columns and labels:
HepG2 cells = conditions: cited from earlier work
[1] = stability in human liver microsomes; assay type: in vitro ADME; conditions: both sexes, human liver microsomes, pH 7.4, 1 μM, HLM 0.5 mg/mL, 37°C, 1 h, mean of duplicates, read-out: HLM stability t1/2
Procedure: Experiments were performed by Pharmaron, Inc., China. […] Negative control samples were prepared by replacing the NADPH solution with ultrapure H2O. The negative controls were used to exclude the confounding variable of test compound instability. Experiments involving NADPH were carried out in duplicate. Negative controls were prepared in singlet. Aliquots (90 µL) were taken at 0, 15, 30, 45, and 60 min of incubation. The microsomal reaction in each aliquot was stopped by the addition of four volumes of cold acetonitrile containing internal standards (100 nM alprazolam, 200 nM imipramine, 200 nM labetalol, and 2 µM ketoprofen). The samples were centrifuged at 3,220 × g for 40 min, and an aliquot (90 µL) of the supernatant was mixed with 90 µL of ultrapure H2O. The resulting mixture was used for liquid chromatography–tandem mass spectrometry (LC-MS/MS) analysis (Shimadzu and SCIEX Triple Quad 4500). Peak areas were determined from extracted ion chromatograms. A slope, k, was determined by linear regression analysis of a plot of the natural logarithm of the remaining percentage of the parent drug versus incubation time. The in vitro t1/2 (min) was determined from the slope: in vitro t1/2=−(0.693/k) In vitro t1/2 (min, mean of duplicate determinations) was converted to in vitro intrinsic clearance (in vitro Clint, μL/(min·µg protein)) by means of the following equation : in vitro Clint=(0.693/t1/2)×(volume of incubation (μL)/amount of protein (μg))

M. leprae = experiment: Shepard's mouse footpad model: bacilli count and molecular viability; assay type: in vivo, Mycobacterium leprae; conditions: Balb/c mice, 1 month, vehicle median 8.110 × 10^4
Procedure: Animal experimentation was conducted under approval by the ILSL ethical committee ([…] 02/19). Balb/c female mice with 8-week-old were inoculated with 5 × 10^3 live M. leprae bacilli, strain Thai-53, in both hind footpads, as previously described for the Shepard's model ([25]). Eight groups were tested in the experiment: (i) M. leprae control group (n = 5) inoculated with M. leprae and no additional treatment; (ii) vehicle control group (n = 4) inoculated with M. leprae and treatment with vehicle of the drugs; (iii) regular rifampicin treatment, 10 mg/Kg dose; […] (v) compound 2 treatment (n = 4), 50 mg/kg dose; […] One month after inoculation, mice from the control group were euthanized and the hind footpad was collected to assess the establishment of the infection by bacillary enumeration. At that time point, vehicle or drug treatment was started for the remaining groups. All compounds were administrated by gavage, rifampicin was administered weekly, and the compounds were administered daily (excluding weekends) for 1 month (20 doses). Mice were euthanized 6 h after administration of the last dose, and blood was collected in heparin-coated tubes by cardiac puncture for blood enzyme evaluation and compound 5 measurement by LC/MS in the plasma. The infected hind footpads from each group of mice were excised, homogenized and bacilli enumerated in a 100 μL aliquot as previously described ([26]). The remaining homogenate was centrifuged at 12,000 × g for 15 min, the supernatant was discarded, and the pellet was suspended in 750 μL of RNA later solution (Thermo Fisher Scientific). The homogenized tissue pellet was incubated at 4°C for 16 h and stored at -80°C until determination of M. leprae viability was performed by RT-qPCR ([27], [28]). […] RNA and DNA extractions were performed as previously described ([10], [27]). RNA samples were treated with the Turbo DNA-free kit (Thermo Fisher Scientific), and 1,000 ng of DNAse-treated RNA was then used to synthesize the cDNA using the GoScript kit (Promega, USA).

| half-life at 1 µM [1] [h] | Structure (SMILES) | pIC50 (HepG2 cells) | bacillary load in footpad, median (M. leprae; rifampicin 10 mg/kg weekly by gavage) | bacillary load in footpad, median (M. leprae; sub-inhibitory rifampicin 1 mg/kg weekly by gavage) |
| --- | --- | --- | --- | --- |
| 1.05 | C[C@]12CCC3C(CN(CCC(F)(F)F)C4CC(=O)CC[C@]34C)C1CCC2C(=O)Nc1cc(C(F)(F)F)ccc1C(F)(F)F (some centres unmarked) [Compound 4] | < 4.00 | – | – |
| 5.62 | CCCN1CC2C3CCC(C(=O)NC(c4ccc(F)cc4)c4ccc(F)cc4)[C@@]3(C)CCC2[C@@]2(C)CCC(=O)C=C12 (some centres unmarked) [Compound 6] | < 4.00 | – | – |
| 0.75 | C[C@]12CCC3C(CN(CCCF)C4CC(=O)CC[C@]34C)C1CCC2C(=O)Nc1cc(C(F)(F)F)ccc1C(F)(F)F (some centres unmarked) [Compound 3] | < 4.00 | – | – |
| – | CO[C@H]1/C=C/O[C@@]2(C)Oc3c(C)c(O)c4c(O)c(c(/C=N/N5CCN(C)CC5)c(O)c4c3C2=O)NC(=O)/C(C)=C\C=C\[C@H](C)[C@H](O)[C@@H](C)[C@@H](O)[C@@H](C)[C@H](OC(C)=O)[C@@H]1C [rifampicin, reference compound] | – | 0.438 × 10^4 | 7.890 × 10^4 |
